In patent publication US20250145665A1, “MACROCYCLIC PEPTIDES USEFUL AS MODULATORS OF TNF ALPHA” (Bristol-Myers Squibb Company, priority 2023, published 2025) one finds IC50 data, which are given here for 14 compounds.

Structures are written as SMILES. Starred links: 1 amine or outer side, 2 acyl side, 3 side chain; linkers in the order of their positions; H or OH if unused. Positions of bridges follow the written chain, without caps; N, C: chain ends. Non-standard residues stand in square brackets, D forms with d. Residues, ends and D or L forms follow the SMILES beside them. *: point of attachment. Bip(4'-NHCO-C6H4-3-CH2COOH) = N[C@@H](Cc1ccc(-c2ccc(NC(=O)c3cccc(CC(=O)O)c3)cc2)cc1)C(=O)O; Bip(4'-NHCO-C6H4-4-CH2COOH) = N[C@@H](Cc1ccc(-c2ccc(NC(=O)c3ccc(CC(=O)O)cc3)cc2)cc1)C(=O)O; dArg(Nω-CH2C6H4-3-CH2Gua) = N=C(N)NCc1cccc(CNC(=N)NCCC[C@@H](N)C(=O)O)c1; Bip(4'-NH) = O=C([C@H](Cc1ccc(-c2ccc(N[*:3])cc2)cc1)N[*:1])[*:2]; Indazole3carbonyl(1-CH2COOH) = O=C(O)Cn1nc(C(=O)*)c2ccccc21; Bip(4'-COOH) = N[C@@H](Cc1ccc(-c2ccc(C(=O)O)cc2)cc1)C(=O)O; Indole3carbonyl(1-CH2COOH) = O=C(O)Cn1cc(C(=O)*)c2ccccc21; dArg(ω-Bn) = N=C(NCCC[C@@H](N)C(=O)O)NCc1ccccc1; Ala(morpholin-4-yl) = N[C@@H](CN1CCOCC1)C(=O)O; Benzoyl(3-OCH2COOH) = O=C(O)COc1cccc(C(=O)*)c1; Bip = N[C@@H](Cc1ccc(-c2ccccc2)cc1)C(=O)O; Cha = N[C@@H](CC1CCCCC1)C(=O)O; Tle = CC(C)(C)[C@H](N)C(=O)O; Sar = CNCC(=O)O

Sequence of TNFα (P01375 77-233 limits assumed): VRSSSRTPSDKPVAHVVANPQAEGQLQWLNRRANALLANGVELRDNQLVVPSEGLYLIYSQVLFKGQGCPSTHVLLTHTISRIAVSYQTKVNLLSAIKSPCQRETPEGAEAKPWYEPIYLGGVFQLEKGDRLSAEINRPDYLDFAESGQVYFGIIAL

The first test has as its target TNFα (Homo sapiens, UniProt P01375). The test can be described thus: TNF-Induced HEK-Blue Assay. The test is classed as cell-based.
Details: not given
With `CC(C)C[C@@H]1NC(=O)[C@H](Cc2ccc(O)cc2)NC(=O)[C@H](C(C)C)NC(=O)[C@@H]2CCCN2C(=O)[C@H](C(C)C)NC(=O)[C@@H](CCCNC(=N)NCc2ccccc2)NC(=O)[C@H](CC(=O)O)NC(=O)[C@@H]2CCCN2C(=O)CN(C)C(=O)[C@H](Cc2ccc(-c3ccc(NC(=O)c4nn(CC(=O)O)c5ccccc45)cc3)cc2)NC(=O)[C@H](Cc2ccc(-c3ccc(C(=O)O)cc3)cc2)NC(=O)[C@H](CC2CCCCC2)NC(=O)CSC[C@@H](C(=O)NCC(N)=O)NC1=O` [Example 579] ({CH2CO}-[Cha][Bip(4'-COOH)][Bip(4'-NH)](Indazole3carbonyl(1-CH2COOH))[Sar]PD[dArg(ω-Bn)]VPVYLCG-NH2; thioether N-13), the IC50 (commonly the concentration that gives 50% inhibition) was under 50 nM.

Turning to `CC(C)C[C@@H]1NC(=O)[C@H](Cc2ccc(O)cc2)NC(=O)[C@H](C(C)C)NC(=O)[C@@H]2CCCN2C(=O)[C@H](C(C)C)NC(=O)[C@@H](CCCNC(=N)NCc2ccccc2)NC(=O)[C@H](CC(=O)O)NC(=O)[C@@H]2CCCN2C(=O)CN(C)C(=O)[C@H](Cc2ccc(-c3ccc(NC(=O)c4cn(CC(=O)O)c5ccccc45)cc3)cc2)NC(=O)[C@H](Cc2ccc(-c3ccc(C(=O)O)cc3)cc2)NC(=O)[C@H](CC2CCCCC2)NC(=O)CSC[C@@H](C(=O)NCC(N)=O)NC1=O` [Example 580] ({CH2CO}-[Cha][Bip(4'-COOH)][Bip(4'-NH)](Indole3carbonyl(1-CH2COOH))[Sar]PD[dArg(ω-Bn)]VPVYLCG-NH2; thioether N-13), the IC50 was under 50 nM.

The same test, now with this note: HEK-Blue-CD40L cells, NF-kB-driven secreted alkaline phosphatase reporter; TNFα 0.5 ng/ml; 18 h; read-out: TNF induced HEK-Blue assay IC50 value.
For the compound `CC(C)C[C@@H]1NC(=O)[C@H](CCCNC(=N)N)NC(=O)[C@H](C(C)C)NC(=O)[C@@H]2CCCN2C(=O)[C@H](C(C)C)NC(=O)[C@@H](CCCNC(=N)NCc2cccc(CNC(=N)N)c2)NC(=O)[C@H](CC(=O)O)NC(=O)[C@@H]2CCCN2C(=O)CN(C)C(=O)[C@H](Cc2ccc(-c3ccc(NC(=O)c4cccc(CC(=O)O)c4)cc3)cc2)NC(=O)[C@H](Cc2ccc(-c3ccccc3)cc2)NC(=O)[C@H](CN2CCOCC2)NC(=O)CSC[C@@H](C(=O)NCC(N)=O)NC1=O` [Example 570] ({CH2CO}-[Ala(morpholin-4-yl)][Bip][Bip(4'-NHCO-C6H4-3-CH2COOH)][Sar]PD[dArg(Nω-CH2C6H4-3-CH2Gua)]VPVRLCG-NH2; thioether N-13), the IC50 lay in the range of 50 to 200 nM.

For the compound `CC(C)C[C@@H]1NC(=O)[C@H](CCCNC(=N)N)NC(=O)[C@H](C(C)C)NC(=O)[C@@H]2CCCN2C(=O)[C@H](C(C)C)NC(=O)[C@@H](CCCNC(=N)NCc2cccc(CNC(=N)N)c2)NC(=O)[C@H](CC(=O)O)NC(=O)[C@@H]2CCCN2C(=O)CN(C)C(=O)[C@H](Cc2ccc(-c3ccc(NC(=O)c4ccc(CC(=O)O)cc4)cc3)cc2)NC(=O)[C@H](Cc2ccc(-c3ccccc3)cc2)NC(=O)[C@H](CN2CCOCC2)NC(=O)CSC[C@@H](C(=O)NCC(N)=O)NC1=O` [Example 571] ({CH2CO}-[Ala(morpholin-4-yl)][Bip][Bip(4'-NHCO-C6H4-4-CH2COOH)][Sar]PD[dArg(Nω-CH2C6H4-3-CH2Gua)]VPVRLCG-NH2; thioether N-13), the IC50 is 50 to 200 nM.

Turning to `CC(C)C[C@@H]1NC(=O)[C@H](CCCNC(=N)N)NC(=O)[C@H](C(C)C)NC(=O)[C@@H]2CCCN2C(=O)[C@H](C(C)C)NC(=O)[C@@H](CCCNC(=N)NCc2cccc(CNC(=N)N)c2)NC(=O)[C@H](CC(=O)O)NC(=O)[C@@H]2CCCN2C(=O)CN(C)C(=O)[C@H](Cc2ccc(-c3ccc(NC(=O)c4cccc(OCC(=O)O)c4)cc3)cc2)NC(=O)[C@H](Cc2ccc(-c3ccccc3)cc2)NC(=O)[C@H](CN2CCOCC2)NC(=O)CSC[C@@H](C(=O)NCC(N)=O)NC1=O` [Example 572] ({CH2CO}-[Ala(morpholin-4-yl)][Bip][Bip(4'-NH)](Benzoyl(3-OCH2COOH))[Sar]PD[dArg(Nω-CH2C6H4-3-CH2Gua)]VPVRLCG-NH2; thioether N-13), the IC50 is under 50 nM.

As for `CC[C@H](C)[C@@H]1NC(=O)[C@@H](CCCNC(=N)N)NC(=O)[C@H](CC(=O)O)NC(=O)[C@@H]2CCCN2C(=O)CN(C)C(=O)[C@H](Cc2ccc(-c3ccc(NC(=O)c4cccc(OCC(=O)O)c4)cc3)cc2)NC(=O)[C@H](Cc2ccc(-c3ccc(C(=O)O)cc3)cc2)NC(=O)[C@H](CC2CCCCC2)NC(=O)CSC[C@@H](C(=O)NCC(N)=O)NC(=O)[C@H](CC(C)C)NC(=O)[C@H](Cc2cnc[nH]2)NC(=O)[C@H](C(C)C)NC(=O)[C@@H]2CCCN2C1=O` [Example 573] ({CH2CO}-[Cha][Bip(4'-COOH)][Bip(4'-NH)](Benzoyl(3-OCH2COOH))[Sar]PD[dR]IPVHLCG-NH2; thioether N-13), the concentration for half-maximal inhibition (IC50) was in the range of 50 to 200 nM.

`CC[C@H](C)[C@@H]1NC(=O)[C@@H](CCCNC(=N)N)NC(=O)[C@H](CC(=O)O)NC(=O)[C@@H]2CCCN2C(=O)CN(C)C(=O)[C@H](Cc2ccc(-c3ccc(NC(=O)c4cccc(OCC(=O)O)c4)cc3)cc2)NC(=O)[C@H](Cc2ccc(-c3ccc(C(=O)O)cc3)cc2)NC(=O)[C@H](C(C)(C)C)NC(=O)CSC[C@@H](C(=O)NCC(N)=O)NC(=O)[C@H](CC(C)C)NC(=O)[C@H](Cc2cnc[nH]2)NC(=O)[C@H](C(C)C)NC(=O)[C@@H]2CCCN2C1=O` [Example 574] ({CH2CO}-[Tle][Bip(4'-COOH)][Bip(4'-NH)](Benzoyl(3-OCH2COOH))[Sar]PD[dR]IPVHLCG-NH2; thioether N-13): the 50% inhibitory concentration (IC50) is under 50 nM.

On to `CC[C@H](C)[C@@H]1NC(=O)[C@@H](CCCNC(=N)N)NC(=O)[C@H](CC(=O)O)NC(=O)[C@@H]2CCCN2C(=O)CN(C)C(=O)[C@H](Cc2ccc(-c3ccc(NC(=O)c4cccc(CC(=O)O)c4)cc3)cc2)NC(=O)[C@H](Cc2ccc(-c3ccc(C(=O)O)cc3)cc2)NC(=O)[C@H](C(C)(C)C)NC(=O)CSC[C@@H](C(=O)NCC(N)=O)NC(=O)[C@H](CC(C)C)NC(=O)[C@H](Cc2cnc[nH]2)NC(=O)[C@H](C(C)C)NC(=O)[C@@H]2CCCN2C1=O` [Example 575] ({CH2CO}-[Tle][Bip(4'-COOH)][Bip(4'-NHCO-C6H4-3-CH2COOH)][Sar]PD[dR]IPVHLCG-NH2; thioether N-13), for which the IC50 was 50 to 200 nM.

In the case of `CC[C@H](C)[C@@H]1NC(=O)[C@@H](CCCNC(=N)N)NC(=O)[C@H](CC(=O)O)NC(=O)[C@@H]2CCCN2C(=O)CN(C)C(=O)[C@H](Cc2ccc(-c3ccc(NC(=O)c4ccc(CC(=O)O)cc4)cc3)cc2)NC(=O)[C@H](Cc2ccc(-c3ccc(C(=O)O)cc3)cc2)NC(=O)[C@H](C(C)(C)C)NC(=O)CSC[C@@H](C(=O)NCC(N)=O)NC(=O)[C@H](CC(C)C)NC(=O)[C@H](Cc2cnc[nH]2)NC(=O)[C@H](C(C)C)NC(=O)[C@@H]2CCCN2C1=O` [Example 576] ({CH2CO}-[Tle][Bip(4'-COOH)][Bip(4'-NHCO-C6H4-4-CH2COOH)][Sar]PD[dR]IPVHLCG-NH2; thioether N-13), the IC50 is 50 to 200 nM.

Take `CC[C@H](C)[C@@H]1NC(=O)[C@@H](CCCNC(=N)N)NC(=O)[C@H](CC(=O)O)NC(=O)[C@@H]2CCCN2C(=O)CN(C)C(=O)[C@H](Cc2ccc(-c3ccc(NC(=O)c4cccc(OCC(=O)O)c4)cc3)cc2)NC(=O)[C@H](Cc2ccc(-c3ccc(C(=O)O)cc3)cc2)NC(=O)[C@H](CN2CCOCC2)NC(=O)CSC[C@@H](C(=O)NCC(N)=O)NC(=O)[C@H](CC(C)C)NC(=O)[C@H](Cc2cnc[nH]2)NC(=O)[C@H](C(C)C)NC(=O)[C@@H]2CCCN2C1=O` [Example 577] ({CH2CO}-[Ala(morpholin-4-yl)][Bip(4'-COOH)][Bip(4'-NH)](Benzoyl(3-OCH2COOH))[Sar]PD[dR]IPVHLCG-NH2; thioether N-13): the concentration for half-maximal inhibition (IC50) lay in the range of 50 to 200 nM.

Regarding `CC[C@H](C)[C@@H]1NC(=O)[C@@H](CCCNC(=N)N)NC(=O)[C@H](CC(=O)O)NC(=O)[C@@H]2CCCN2C(=O)CN(C)C(=O)[C@H](Cc2ccc(-c3ccc(NC(=O)c4cccc(CC(=O)O)c4)cc3)cc2)NC(=O)[C@H](Cc2ccc(-c3ccc(C(=O)O)cc3)cc2)NC(=O)[C@H](CN2CCOCC2)NC(=O)CSC[C@@H](C(=O)NCC(N)=O)NC(=O)[C@H](CC(C)C)NC(=O)[C@H](Cc2cnc[nH]2)NC(=O)[C@H](C(C)C)NC(=O)[C@@H]2CCCN2C1=O` [Example 578] ({CH2CO}-[Ala(morpholin-4-yl)][Bip(4'-COOH)][Bip(4'-NHCO-C6H4-3-CH2COOH)][Sar]PD[dR]IPVHLCG-NH2; thioether N-13), the half-inhibitory concentration (IC50) is under 50 nM.

Consider `CC(C)C[C@@H]1NC(=O)[C@H](Cc2ccc(O)cc2)NC(=O)[C@H](C(C)C)NC(=O)[C@@H]2CCCN2C(=O)[C@H](C(C)C)NC(=O)[C@@H](CCCNC(=N)NCc2ccccc2)NC(=O)[C@H](CC(=O)O)NC(=O)[C@@H]2CCCN2C(=O)CN(C)C(=O)[C@H](Cc2ccc(-c3ccc(NC(=O)c4ccc(CC(=O)O)cc4)cc3)cc2)NC(=O)[C@H](Cc2ccc(-c3ccc(C(=O)O)cc3)cc2)NC(=O)[C@H](CC2CCCCC2)NC(=O)CSC[C@@H](C(=O)NCC(N)=O)NC1=O` [Example 582] ({CH2CO}-[Cha][Bip(4'-COOH)][Bip(4'-NHCO-C6H4-4-CH2COOH)][Sar]PD[dArg(ω-Bn)]VPVYLCG-NH2; thioether N-13), for which the IC50 was under 50 nM.

On to `CC(C)C[C@@H]1NC(=O)[C@H](Cc2ccc(O)cc2)NC(=O)[C@H](C(C)C)NC(=O)[C@@H]2CCCN2C(=O)[C@H](C(C)C)NC(=O)[C@@H](CCCNC(=N)NCc2ccccc2)NC(=O)[C@H](CC(=O)O)NC(=O)[C@@H]2CCCN2C(=O)CN(C)C(=O)[C@H](Cc2ccc(-c3ccc(NC(=O)c4cccc(CC(=O)O)c4)cc3)cc2)NC(=O)[C@H](Cc2ccc(-c3ccc(C(=O)O)cc3)cc2)NC(=O)[C@H](CC2CCCCC2)NC(=O)CSC[C@@H](C(=O)NCC(N)=O)NC1=O` [Example 583] ({CH2CO}-[Cha][Bip(4'-COOH)][Bip(4'-NHCO-C6H4-3-CH2COOH)][Sar]PD[dArg(ω-Bn)]VPVYLCG-NH2; thioether N-13), for which the IC50 lay in the range of 50 to 200 nM.

As for `CC[C@H](C)[C@@H]1NC(=O)[C@@H](CCCNC(=N)NCc2ccccc2)NC(=O)[C@H](CC(=O)O)NC(=O)[C@H](Cc2cnc[nH]2)NC(=O)CN(C)C(=O)[C@H](Cc2ccc(-c3ccc(NC(=O)c4ccc(CC(=O)O)cc4)cc3)cc2)NC(=O)[C@H](Cc2ccc(-c3ccc(C(=O)O)cc3)cc2)NC(=O)[C@H](CC2CCCCC2)NC(=O)CSC[C@@H](C(=O)NCC(N)=O)NC(=O)[C@H](CC(C)C)NC(=O)[C@H](Cc2cnc[nH]2)NC(=O)[C@H](C(C)C)NC(=O)[C@@H]2CCCN2C1=O` [Example 584] ({CH2CO}-[Cha][Bip(4'-COOH)][Bip(4'-NHCO-C6H4-4-CH2COOH)][Sar]HD[dArg(ω-Bn)]IPVHLCG-NH2; thioether N-13), the half-maximal inhibitory concentration (IC50) fell in the range of 50 to 200 nM.
